Measured values: ChEMBL document CHEMBL1129070, “(-)-Arctigenin as a lead structure for inhibitors of human immunodeficiency virus type-1 integrase” (J Med Chem, 1996)

How the values were obtained:
[1] = target: Human immunodeficiency virus type 1 integrase (Human immunodeficiency virus 1) (UniProt Q7ZJM1); assay: Inhibitory activity against 3'-processing by HIV-1 Integrase at 100 uM
[2] = target: Human immunodeficiency virus type 1 integrase (Human immunodeficiency virus 1) (UniProt Q7ZJM1); assay: Inhibitory activity against strand transfer by HIV-1 Integrase at 100 uM
[3] = target: T1, Human immunodeficiency virus type 1 integrase (Human immunodeficiency virus 1, UniProt Q7ZJM1); assay: Inhibitory concentration against Strand transfer by HIV -1 Integrase
T1 sequence (Q7ZJM1 whole entry): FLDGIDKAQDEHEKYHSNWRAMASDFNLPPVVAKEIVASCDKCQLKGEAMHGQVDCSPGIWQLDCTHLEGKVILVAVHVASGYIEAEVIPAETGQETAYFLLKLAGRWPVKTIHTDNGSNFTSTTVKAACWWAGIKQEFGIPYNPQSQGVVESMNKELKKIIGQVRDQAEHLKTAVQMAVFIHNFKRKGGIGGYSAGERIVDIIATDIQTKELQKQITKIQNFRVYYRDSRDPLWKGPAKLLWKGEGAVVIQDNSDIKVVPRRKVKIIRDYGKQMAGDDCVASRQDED

[4] = target: T1, Human immunodeficiency virus type 1 integrase; assay: Inhibitory concentration against 3'-processing by HIV -1 Integrase

Human immunodeficiency virus type 1 integrase (Human immunodeficiency virus 1), sequence (Q7ZJM1 as listed by the source): as the sequence (Q7ZJM1 whole entry) above

SMILES | inhibition [1] | inhibition [2] | IC50 [3] | IC50 [4]
COc1ccc(C[C@H]2CCC(=O)[C@@H]2Cc2ccc(O)c(O)c2)cc1OC | < 5% | < 5% |  | 
COc1cc([C@@H]2c3cc4c(c(O)c3C[C@H]3COC(=O)[C@H]32)OCO4)cc(OC)c1OC | < 5% | < 5% |  | 
COc1cc(C[C@@H](C(=O)NCc2ccccc2)[C@H](CO)Cc2ccc(OC)c(OC)c2)ccc1O | < 5% | < 5% |  | 
COc1cc([C@@H]2c3cc4c(c(O)c3C[C@H]3COC(=O)[C@@H]32)OCO4)cc(OC)c1O | < 5% | < 5% |  | 
COc1ccc(C[C@@H](CO)[C@H](CO)Cc2ccc(O)c(O)c2)cc1OC | < 5% | < 5% |  | 
COc1ccc(C[C@H]2COC[C@@H]2Cc2ccc(O)c(O)c2)cc1OC | < 5% | < 5% |  | 
COc1cc([C@@H]2c3cc4c(cc3[C@H](O)[C@H]3COC(=O)[C@@H]23)OCO4)cc(OC)c1O | < 5% | < 5% |  | 
COc1cc([C@@H]2c3cc4c(cc3C(O)[C@H]3COC(=O)[C@H]23)OCO4)cc(O)c1O (stereo not given in full) | < 5% | < 5% |  | 
COc1cc([C@@H]2c3cc4c(c(O)c3C[C@H]3COC(=O)[C@@H]32)OCO4)cc(OC)c1OC | < 5% | < 5% |  | 
COc1cc(C[C@H]2C(=O)OC[C@@H]2Cc2ccc(O)c(O)c2)ccc1O | < 5% | 41% |  | 
COc1ccc(C[C@H]2COC(=O)[C@@H]2Cc2ccc(O)c(O)c2)cc1OC | 37% | 52% |  | 
COc1ccc(C[C@H]2COC(=O)[C@@H]2Cc2cc(O)c(O)c(O)c2)cc1OC | < 5% | < 5% |  | 
COc1ccc(C[C@H]2COC(=O)[C@@H]2Cc2ccccc2)cc1OC | < 5% | < 5% |  | 
COc1ccc(C[C@H]2COC(=O)[C@@H]2Cc2cccc(O)c2)cc1OC | < 5% | < 5% |  | 
O=C1OC[C@H](Cc2ccc3c(c2)OCO3)[C@H]1Cc1ccccc1 | < 5% | < 5% |  | 
COc1ccc(C[C@@H](CO)[C@@H](Cc2ccc(O)c(O)c2)C(=O)NCc2ccccc2)cc1OC | < 5% | < 5% |  | 
O=C1OC[C@H](Cc2ccc3c(c2)OCO3)[C@H]1Cc1cccc(O)c1 | < 5% | < 5% |  | 
COc1ccc(C[C@H]2COC(=O)[C@@H]2Cc2ccc(O)cc2)cc1OC | < 5% | < 5% |  | 
COc1cc(C[C@H]2C(=O)CC[C@@H]2Cc2ccc(OC)c(OC)c2)ccc1O | < 5% | < 5% |  | 
COc1cc([C@@H]2c3cc4c(c(O)c3C[C@H]3COC(=O)[C@H]32)OCO4)cc(OC)c1O | < 5% | < 5% |  | 
COc1cc(C[C@H]2COC[C@@H]2Cc2ccc(OC)c(OC)c2)ccc1O | < 5% | < 5% |  | 
COc1cc(C[C@@H](CO)[C@H](CO)Cc2ccc(O)c(OC)c2)ccc1O | < 5% | < 5% |  | 
COc1cc([C@@H]2c3cc4c(cc3[C@H](O)[C@H]3COC(=O)[C@H]23)OCO4)cc(OC)c1O | < 5% | < 5% |  | 
COc1cc(C[C@@H](CO)[C@H](CO)Cc2ccc(OC)c(OC)c2)ccc1O | < 5% | < 5% |  | 
COc1cc(C[C@H]2COC[C@@H]2Cc2ccc(O)c(OC)c2)ccc1O | < 5% | < 5% |  | 
O=C1OC[C@H](Cc2ccc(O)c(O)c2)[C@H]1Cc1ccc(O)c(O)c1 | 92% | 100% | 5.4 µM | 21.4 µM
COc1cc(C[C@H]2C(=O)OC[C@@H]2Cc2ccc(OC)c(OC)c2)ccc1O | < 5% | < 5% |  | 
COc1cc(C[C@H]2COC(=O)[C@@H]2Cc2ccc(O)c(OC)c2)ccc1O | < 5% | < 5% |  | 
O=C1OC[C@H](Cc2ccc3c(c2)OCO3)[C@H]1Cc1ccc(O)cc1 | < 5% | < 5% |  | 
